These results are taken from US9980943B2, “Methods of treating muscular dystrophy” (BOARD OF REGENTS OF THE NEVADA SYSTEM OF HIGHER EDUCATION, …, priority 2013, dated 2018).

For the test, the system named is α7 integrin (LacZ reporter in α7LacZ+/− myoblasts). In words: qHTS of the LOPAC library and MLSMR (online screen, α7LacZ+/− myoblasts). Particulars: for activation at 0.307 µM / activation at 1.53 µM / activation at 7.66 µM / activation at 38.3 µM / Emax / EC50: Mus musculus, Myoblast; for activation at 0.307 µM: read-out: Activity at 0.307 uM [%] **; for activation at 1.53 µM: read-out: Activity at 1.530 uM [%] **; for activation at 7.66 µM: read-out: Activity at 7.660 uM [%] **; for activation at 38.3 µM: read-out: Activity at 38.30uM [%] **; for EC50: read-out: Fit LogAC50 (converted).

Where [1] appears, read: 48 h, read-out: Fit Infinite Activity [%].

Read-outs that look alike come from different tables or passages of the source.

Protocol: A total of 250 α7LacZ^+/− myoblasts at passage 13 were dispensed using a multidrop (Thermo) into black low base tissue culture treated microclear aurora plates in 6 μl media containing DMEM without phenol, 5% FBS, 1× GluMax and 1× Penicillin/Streptomycin. […] Compounds were then dispensed using a Kalypsys pintool to deliver 23 nl/well compounds in DMSO (diluted into 6 μl resulting in a 1:260 dilution of compound). […] After incubation with compound, 5 μl of the media was aspirated using the Kalypsys washer/dispenser and 3 μl of the Mammalian Protein Extraction Reagent (MPER) lysis buffer (Thermo Fisher) was added. […] The plates were then incubated for 10 minutes at room temperature.
The assay was adapted for a high-throughput screen with the fully automated Kalypsys robotic system using 1536 well plates at NCGC.

For `O=[N+]([O-])c1ccc(Cl)cc1N/N=C/c1ccncc1` [Compound 112], the EC50 is 5.62 µM. Under “48 h”, the activation at 0.307 µM came to 0%, the activation at 1.53 µM is 1.53%, the activation at 7.66 µM turned out to be 54% and the activation at 38.3 µM turned out to be 73.8%. Moreover, under setting [1], the Emax stood at 74%. Besides, where the note is “read-out: Max Response [%]”, the Emax was found to be 73.8%. In addition, the Score (Table 8 Compound data) is reported as 43.

Turning to `CN(C#N)c1nccc(-c2cccs2)n1` [Compound 190], for the setting “48 h”, the activation at 0.307 µM was -30.5%, the activation at 1.53 µM was -25.3%, the activation at 7.66 µM was 6.31% and the activation at 38.3 µM was found to be 79.6%. In addition, the Emax under setting [1] is 87.5%. Also, the Emax (read-out: Max Response [%]) was 79.6%.

Turning to `CN(C)/C=N/c1nccc(-c2cccs2)n1` [Compound 121], the EC50 is 8.91 µM. Also, for the setting “48 h”, the activation at 0.307 µM turned out to be 6.86%, the activation at 1.53 µM was 8.46%, the activation at 7.66 µM came out at 45% and the activation at 38.3 µM was found to be 92.6%. The Emax under setting [1] worked out at 97.8%. Besides, under “read-out: Max Response [%]”, the Emax is 92.6%.

As to `Cc1ccc(NP(=O)(Nc2ccc(C)cc2)Nc2ccc(C)cc2)cc1` [Compound 10], the EC50 is 3.16 µM. Moreover, where the note is “48 h”, the activation at 0.307 µM is 0%, the activation at 1.53 µM amounted to 11.4%, the activation at 7.66 µM was 94.1% and the activation at 38.3 µM came to 102%. Further, the Emax under setting [1] turned out to be 102%.

Take `CCCCNc1nnc(SCC(=O)c2c(N)n(CCC)c(=O)[nH]c2=O)s1` [Compound 69]: the EC50 was 3.98 µM. Besides, for the setting “48 h”, the activation at 0.307 µM was determined as 0%, the activation at 1.53 µM is 16.2%, the activation at 7.66 µM came to 62.8% and the activation at 38.3 µM came out at 84.4%. Besides, the Emax under setting [1] amounted to 88.1%. For the same molecule, the Emax (read-out: Max Response [%]) stood at 84.4%.

Take `Cc1ccc(OCC(=O)N2CCN(S(=O)(=O)c3ccc4c(c3)OCCO4)CC2)c(C)c1` [Compound 27]: the EC50 is 2 µM. Besides, under “48 h”, the activation at 0.307 µM was -26.2%, the activation at 1.53 µM is 3.31%, the activation at 7.66 µM amounted to 51.6% and the activation at 38.3 µM stood at 53.8%. Further, the Emax under setting [1] is 55%.

Consider `Sc1nnc(Cn2cnc3ccccc32)n1-c1ccccc1` [Compound 189], for which, for the setting “48 h”, the activation at 0.307 µM is 13.1%, the activation at 1.53 µM was determined as 23.7%, the activation at 7.66 µM amounted to 44% and the activation at 38.3 µM is 66.7%. Besides, the Emax under setting [1] stood at 84.6%. The Emax (read-out: Max Response [%]) was 66.7%.

`COc1cccc(C(=O)NCC(=O)N2CCC3(CC2)NCCc2[nH]cnc23)c1` [Compound 93]: the EC50 was 11.2 µM. In addition, for the setting “48 h”, the activation at 0.307 µM is -3.47%, the activation at 1.53 µM was found to be 0%, the activation at 7.66 µM was determined as 36.3% and the activation at 38.3 µM was determined as 102%. Besides, the Emax under setting [1] worked out at 114%. For the same molecule, the Emax (read-out: Max Response [%]) was 102%.

For the molecule `Cc1cc(C(=O)Nc2cccc3ccccc23)c(C)o1` [Compound 153], where the note is “48 h”, the activation at 0.307 µM is -20.8%, the activation at 1.53 µM was -14.3%, the activation at 7.66 µM turned out to be 26.2% and the activation at 38.3 µM amounted to 66%. Under setting [1], the Emax worked out at 74.5%. For the same molecule, the Emax (read-out: Max Response [%]) amounted to 66%.

Turning to `COc1cc(NC(=O)C2C3C=CC(C3)C2C(=O)O)ccc1NC(=O)c1ccccc1` (stereo not shown) [Compound 142], where the note is “48 h”, the activation at 0.307 µM is -17.1%, the activation at 1.53 µM was -18.7%, the activation at 7.66 µM stood at 16.8% and the activation at 38.3 µM came out at 68.9%. The Emax under setting [1] is 71.2%. Further, for the setting “read-out: Max Response [%]”, the Emax came out at 68.9%.

For the molecule `N#Cc1ccc(Sc2nc3ccccc3[nH]2)cc1C#N` [Compound 218], the EC50 was 10 µM. For the same molecule, under “48 h”, the activation at 0.307 µM was 14%, the activation at 1.53 µM amounted to 13.1%, the activation at 7.66 µM is 29.8% and the activation at 38.3 µM amounted to 71.5%. Further, under setting [1], the Emax was 71.8%. In addition, under “read-out: Max Response [%]”, the Emax stood at 71.5%.

For `CCc1nnc(NC(=O)c2ccc(S(=O)(=O)NCC(C)C)cc2)s1` [Compound 66], the EC50 is 12.6 µM. For the setting “48 h”, the activation at 0.307 µM came out at 16.2%, the activation at 1.53 µM was 8.68%, the activation at 7.66 µM was found to be 32.8% and the activation at 38.3 µM stood at 225%. Besides, under setting [1], the Emax was 227%. Further, for the setting “read-out: Max Response [%]”, the Emax came to 225%.

As to `CCOc1ccc(S(=O)(=O)NCCC(=O)NCC(c2cccs2)N2CCOCC2)cc1` (stereo not shown) [Compound 14], the EC50 was 2.24 µM. Besides, under “48 h”, the activation at 0.307 µM is -21.6%, the activation at 1.53 µM came out at 3.54%, the activation at 7.66 µM was 59.1% and the activation at 38.3 µM stood at 61.7%. Also, the Emax under setting [1] was 62.8%.

Turning to `Cc1cc(-c2ccccc2)n2nc(N)nc2n1` [Compound 127], where the note is “48 h”, the activation at 0.307 µM is -20%, the activation at 1.53 µM was -16.1%, the activation at 7.66 µM was -2.95% and the activation at 38.3 µM stood at 151%. Besides, the Emax under setting [1] came out at 152%. Also, the Emax (read-out: Max Response [%]) worked out at 151%.

`CC(=O)c1ccc(N(C(=O)CNC(=O)c2ccco2)C(C(=O)NC2CCCC2)c2ccc(C)o2)cc1` (stereo not shown) [Compound 146]: the EC50 was 10 µM. Also, where the note is “48 h”, the activation at 0.307 µM is -20.8%, the activation at 1.53 µM is -20.9%, the activation at 7.66 µM worked out at 0% and the activation at 38.3 µM was found to be 75.5%. The Emax under setting [1] was 75.5%. Also, under “read-out: Max Response [%]”, the Emax was found to be 75.5%.

For `O=C(Nc1ccc(Oc2cccnc2)cc1)c1ccccc1Cl` [Compound 215], the EC50 was 10 µM. Under “48 h”, the activation at 0.307 µM was found to be 14.2%, the activation at 1.53 µM is 15.2%, the activation at 7.66 µM came out at 40.8% and the activation at 38.3 µM came to 83.3%. Further, the Emax under setting [1] amounted to 87.4%. In addition, the Emax (read-out: Max Response [%]) came to 83.3%.

Regarding `CCCn1c(-c2cc(OC)c(OC)c(OC)c2)nc2c1c(=O)[nH]c(=O)n2Cc1ccccc1` [Compound 54], the EC50 is 12.6 µM. Where the note is “48 h”, the activation at 0.307 µM was found to be 42%, the activation at 1.53 µM was 58.6%, the activation at 7.66 µM was 120% and the activation at 38.3 µM came out at 213%. Further, the Emax under setting [1] is 262%. Besides, the Emax (read-out: Max Response [%]) worked out at 213%.

As to `O=C(CSc1nnc(C2CC2)n1C1CC1)c1cccs1` [Compound 133], the EC50 was 10 µM. Moreover, under “48 h”, the activation at 0.307 µM was -26%, the activation at 1.53 µM is -28.4%, the activation at 7.66 µM was 5.99% and the activation at 38.3 µM worked out at 70.2%. Besides, under setting [1], the Emax was found to be 73.1%. Where the note is “read-out: Max Response [%]”, the Emax was found to be 70.2%.

For `CC1=C(C#N)C(=O)N(C)C(=O)/C1=C\NNc1ccc(F)cc1` [Compound 203], for the setting “48 h”, the activation at 0.307 µM is -46%, the activation at 1.53 µM is -36.9%, the activation at 7.66 µM came to 8.42% and the activation at 38.3 µM stood at 51.8%. The Emax under setting [1] was 59.4%. Further, the Emax (read-out: Max Response [%]) came to 51.8%.

Turning to `COCc1c(C(=O)OCc2nc(=O)c3sccc3[nH]2)oc2ccccc12` [Compound 6], the EC50 is 1.12 µM. Besides, under “48 h”, the activation at 0.307 µM was -39.8%, the activation at 1.53 µM is 19.2%, the activation at 7.66 µM came out at 60.6% and the activation at 38.3 µM was 68.1%. Also, under setting [1], the Emax was found to be 69.6%.

For `Cc1cc(OCC(=O)NC(C)C)ccc1Cl` [Compound 11], the EC50 was 3.98 µM. In addition, for the setting “48 h”, the activation at 0.307 µM was 0%, the activation at 1.53 µM was determined as 7.6%, the activation at 7.66 µM worked out at 83.9% and the activation at 38.3 µM was 102%. In addition, the Emax under setting [1] was found to be 101%.

Take `COc1ccc2oc(C[S+]([O-])c3ccccc3)c(C(=O)O)c2c1` (stereo not shown) [Compound 109]: the EC50 is 12.6 µM. In addition, for the setting “48 h”, the activation at 0.307 µM was 5.2%, the activation at 1.53 µM was 10.1%, the activation at 7.66 µM turned out to be 20.9% and the activation at 38.3 µM worked out at 174%. Besides, the Emax under setting [1] was found to be 174%. Also, the Emax (read-out: Max Response [%]) turned out to be 174%.

In the case of `CC(=O)Nc1nonc1-c1nc2ccccc2n1CCC(C)C` [Compound 219], under “48 h”, the activation at 0.307 µM is -8.22%, the activation at 1.53 µM is -3.05%, the activation at 7.66 µM came to 21.4% and the activation at 38.3 µM is 66%. Besides, the Emax under setting [1] was determined as 76.4%. Moreover, under “read-out: Max Response [%]”, the Emax was 66%.

Turning to `N#Cc1ccc(OCC(O)CS(=O)(=O)c2ccccc2)cc1` (stereo not shown) [Compound 195], the EC50 is 10 µM. For the same molecule, where the note is “48 h”, the activation at 0.307 µM was -7.88%, the activation at 1.53 µM is -12%, the activation at 7.66 µM came to 15.3% and the activation at 38.3 µM was 89.4%. Also, under setting [1], the Emax stood at 89.6%. Moreover, where the note is “read-out: Max Response [%]”, the Emax came out at 89.4%.

For `O=C(Nc1ccc(S(=O)(=O)Nc2nccs2)cc1)c1ccccc1OC(F)F` [Compound 137], the EC50 was 10 µM. Besides, for the setting “48 h”, the activation at 0.307 µM is -19.2%, the activation at 1.53 µM was -19.4%, the activation at 7.66 µM is -1.67% and the activation at 38.3 µM came out at 61.8%. Under setting [1], the Emax came out at 61.7%. Also, the Emax (read-out: Max Response [%]) was 61.8%.

In the case of `CCS(=O)(=O)N1CCCC(C(=O)c2ccc(OC)cc2C)C1` (stereo not shown) [Compound 83], the EC50 is 11.2 µM. Moreover, under “48 h”, the activation at 0.307 µM was -13.5%, the activation at 1.53 µM is -10.6%, the activation at 7.66 µM amounted to 41.5% and the activation at 38.3 µM was 149%. The Emax under setting [1] came out at 162%. Moreover, for the setting “read-out: Max Response [%]”, the Emax was found to be 149%.

As to `O=C(CCc1ccccc1)c1nnc(-c2ccccc2)o1` [Compound 183], the EC50 is 10 µM. Under “48 h”, the activation at 0.307 µM was found to be 0%, the activation at 1.53 µM worked out at 2.03%, the activation at 7.66 µM is 24.4% and the activation at 38.3 µM amounted to 99.5%. Besides, under setting [1], the Emax worked out at 99.7%. Further, for the setting “read-out: Max Response [%]”, the Emax was 99.5%.
